From US20100226991A1, “SOLID INORGANIC/ORGANIC HYBRID WITH MODIFIED SURFACE” (CENTRE NATIONAL DE LA RECHERCHE SCIENTIFIQUE - CNRS-, priority 2007, published 2010)
≈ marks a conversion by molar mass, not a printed value.

Tests used:
[1] = 20° C.; cited from earlier work
rats = settings: cited from earlier work
Female Wistar rats = settings: rat, in vivo
Method: The animals used for the experiment are […] female Wistar rats weighing 161.36±16.1 g.
All the tests were performed in the animal house of the University Pharmacy school under temperature and humidity conditions, and after 3 days of adapting the animals to the animal house (3 days).
For the acute toxicity tests, a single intrajugular injection of the materials MIL-88A (150 and 500 nm), MIL-88Bt (50 and 140 nm) or 5% glucose (control group) is performed on 4 groups (at 1 day, 1 week, 1 month and 3 months, respectively) of 8 rats chosen at random and anesthetized with isoflurane.
The change in weight and the behavior of the animals were monitored. […]
Moreover, each group of animals was sacrificed after 1 day, 1 week, 1 and 3 months, respectively. The animals were anesthetized with isoflurane and the spleen, kidneys, liver and heart were then removed and stored for histological studies. Four livers were also used to perform a microsomal extraction in order to measure the activation of cytochrome P450. […]

Cytochrome P450 = tested on: Cytochrome P450; set-up: species or system Wistar rats; settings: rat, in vivo
Description: Moreover, each group of animals was sacrificed after 1 day, 1 week, 1 and 3 months, respectively. The animals were anesthetized with isoflurane and the spleen, kidneys, liver and heart were then removed and stored for histological studies. Four livers were also used to perform a microsomal extraction in order to measure the activation of cytochrome P450.
Cytochrome P450 is an enzyme associated with the […] of the smooth endoplasmic reticulum, which is highly involved in the degradation of exogenous molecules. This enzyme has very low substrate specificity and is capable of catalyzing the transformation of newly synthesized compounds such as medicaments. The majority of the P450 cytochromes can be induced or repressed, at the transcriptional level, by various xenobiotics; this is often the cause of side effects of medicaments. Assaying this enzyme makes it possible to determine whether the MOF material used is metabolized by cytochrome P450, in which case it will activate or inhibit its activity.
The amount of cytochrome can be interpreted only on condition that it has been related to the total amount of protein contained in each sample. Assay of the protein contained in the sample was performed by means of a BCA kit supplied by Pierce (batch #HI106096). […]

[2] = Solubility of busulfan in various solvents; assay type: physicochemical
Description: The solvents chosen for the impregnation are those in which busulfan has appreciable solubility (acetone, acetonitrile, chloroform, dichloromethane, dimethyl carbonate) (Table 18).

COc1cc(O)c(C(=O)c2ccccc2)cc1S(=O)(=O)O [Benzophenone-4, 2-hydroxy-4-methoxybenzophenone-5-sulfonic acid]
solubility in water [1]: 100000 µg/mL (≈ 324 mM)

[Cl][Zr]([Cl])([Cl])[Cl] [ZrCl4]
oral lethal dose 50 (LD50) (rats): 1700 mg/kg

Fe3O[O2C—C6(CH3)4—CO2]3.OH.nH2O [MIL-88Bt]
liver weight (Female Wistar rats): the weight remains high
seric iron (Female Wistar rats): recovered a seric iron concentration comparable to that of the control group
signs of severe toxicity (Female Wistar rats): do not induce any sign of severe toxicity
weight change of the animals (Female Wistar rats): does not produce a significant variation in weight over time
metabolism by cytochrome P450 (cytochrome activity vs glucose control) (Cytochrome P450): does not appear to be metabolized by Cyp450

Fe3O[O2C—C2H2—CO2]3.X.nH2O [MIL-88A]
liver weight (Female Wistar rats): returns to normal for MIL-88A after 3 months
seric iron (Female Wistar rats): recovered a seric iron concentration comparable to that of the control group
signs of severe toxicity (Female Wistar rats): do not induce any sign of severe toxicity
weight change of the animals (Female Wistar rats): does not produce a significant variation in weight over time
metabolism by cytochrome P450 (cytochrome activity vs glucose control) (Cytochrome P450): not metabolized by Cyp450

COc1ccc(C(=O)c2ccccc2)c(O)c1 [Benzophenone-3, 2-hydroxy-4-methoxybenzophenone]
solubility in water [1]: 3.7 µg/mL (≈ 0.0162 mM)

CS(=O)(=O)OCCCCOS(C)(=O)=O [busulfan, 1,4-butanediol dimethylsulfonate]
solubility ([2]; acetone, organic solvent or mixture): 20000 µg/mL
solubility ([2]; acetonitrile, organic solvent or mixture): 30000 µg/mL
solubility ([2]; chloroform, organic solvent or mixture): 8000 µg/mL
solubility ([2]; dichloromethane, organic solvent or mixture): 10000 µg/mL
solubility ([2]; dimethyl carbonate, organic solvent or mixture): 13000 µg/mL
solubility ([2]; ethanol, organic solvent or mixture): < 4000 µg/mL
solubility ([2]; ether, organic solvent or mixture): < 4000 µg/mL
solubility ([2]; ethyl acetate, organic solvent or mixture): 6600 µg/mL
solubility ([2]; hexane, organic solvent or mixture): < 4000 µg/mL
solubility ([2]; methanol, organic solvent or mixture): < 4000 µg/mL
solubility ([2]; tetrahydrofuran, organic solvent or mixture): ~5000 µg/mL
solubility ([2]; toluene, organic solvent or mixture): ~4000 µg/mL
solubility ([2]; water): 100 µg/mL
